Read-outs that look alike come from different tables or passages of the source. Values belong to the molecule of their own block, whether it stands above or below them.
Assays:
Type in all cases: biochemical
[1] = target: MLK3/MAP3K11 (Homo sapiens, UniProt Q16584); test: Kinase selectivity panel, MLK3/MAP3K11; settings: for fold selectivity MAP4K4 over MLK3/MAP3K11: in favour of MAP4K4; for IC50: read-out: pIC50 MLK3/MAP3K11 (converted)
From the text: (§1) The data in Table 42 also provides the fold selectivity of the two compounds in favour of MAP4K4 over the tested kinase. The fold selectivity is indicated in parenthesis.

[2] = target: TNIK/MAP4K7 (Homo sapiens, UniProt Q9UKE5); test: Kinase selectivity panel, TNIK/MAP4K7; settings: read-out: pIC50 TNIK/MAP4K7 (converted)
From the text: as §1

[3] = target: MLK1/MAP3K9 (Homo sapiens, UniProt P80192); test: Kinase selectivity panel, MLK1/MAP3K9; settings: for fold selectivity MAP4K4 over MLK1/MAP3K9: in favour of MAP4K4; for IC50: read-out: pIC50 MLK1/MAP3K9 (converted)
From the text: as §1

[4] = target: T1, GCK/MAP4K2 (Homo sapiens, UniProt Q12851); test: Kinase selectivity panel, GCK/MAP4K2; settings: for fold selectivity MAP4K4 over GCK/MAP4K2: in favour of MAP4K4; for IC50: read-out: pIC50 GCK/MAP4K2 (converted)
T1 sequence (Q12851 1-820): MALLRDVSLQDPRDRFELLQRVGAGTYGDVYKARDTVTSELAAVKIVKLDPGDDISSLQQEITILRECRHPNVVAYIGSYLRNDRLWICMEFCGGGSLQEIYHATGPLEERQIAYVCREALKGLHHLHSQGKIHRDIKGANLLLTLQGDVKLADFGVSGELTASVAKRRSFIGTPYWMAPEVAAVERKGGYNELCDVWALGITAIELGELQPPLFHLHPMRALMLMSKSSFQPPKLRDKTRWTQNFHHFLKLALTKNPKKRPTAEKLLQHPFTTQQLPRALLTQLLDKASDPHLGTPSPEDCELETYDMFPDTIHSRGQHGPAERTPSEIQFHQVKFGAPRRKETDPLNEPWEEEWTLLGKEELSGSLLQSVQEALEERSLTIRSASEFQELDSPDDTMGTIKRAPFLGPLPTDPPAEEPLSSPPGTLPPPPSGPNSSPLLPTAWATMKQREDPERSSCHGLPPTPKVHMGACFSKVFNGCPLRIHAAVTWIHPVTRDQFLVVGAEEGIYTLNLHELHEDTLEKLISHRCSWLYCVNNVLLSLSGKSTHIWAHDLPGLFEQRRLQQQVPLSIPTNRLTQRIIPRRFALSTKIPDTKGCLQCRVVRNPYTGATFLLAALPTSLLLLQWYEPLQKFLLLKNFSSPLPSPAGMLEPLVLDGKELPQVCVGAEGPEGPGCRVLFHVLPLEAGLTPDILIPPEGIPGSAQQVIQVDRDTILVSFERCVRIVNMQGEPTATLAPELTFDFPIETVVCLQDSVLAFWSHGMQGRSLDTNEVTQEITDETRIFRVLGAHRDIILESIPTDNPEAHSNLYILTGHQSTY
From the text: as §1

[5] = target: MINK1/MAP4K6 (Homo sapiens, UniProt Q8N4C8); test: Kinase selectivity panel, MINK1/MAP4K6; settings: read-out: pIC50 MINK1/MAP4K6 (converted)
Chain of MINK1/MAP4K6 (Q8N4C8 whole entry): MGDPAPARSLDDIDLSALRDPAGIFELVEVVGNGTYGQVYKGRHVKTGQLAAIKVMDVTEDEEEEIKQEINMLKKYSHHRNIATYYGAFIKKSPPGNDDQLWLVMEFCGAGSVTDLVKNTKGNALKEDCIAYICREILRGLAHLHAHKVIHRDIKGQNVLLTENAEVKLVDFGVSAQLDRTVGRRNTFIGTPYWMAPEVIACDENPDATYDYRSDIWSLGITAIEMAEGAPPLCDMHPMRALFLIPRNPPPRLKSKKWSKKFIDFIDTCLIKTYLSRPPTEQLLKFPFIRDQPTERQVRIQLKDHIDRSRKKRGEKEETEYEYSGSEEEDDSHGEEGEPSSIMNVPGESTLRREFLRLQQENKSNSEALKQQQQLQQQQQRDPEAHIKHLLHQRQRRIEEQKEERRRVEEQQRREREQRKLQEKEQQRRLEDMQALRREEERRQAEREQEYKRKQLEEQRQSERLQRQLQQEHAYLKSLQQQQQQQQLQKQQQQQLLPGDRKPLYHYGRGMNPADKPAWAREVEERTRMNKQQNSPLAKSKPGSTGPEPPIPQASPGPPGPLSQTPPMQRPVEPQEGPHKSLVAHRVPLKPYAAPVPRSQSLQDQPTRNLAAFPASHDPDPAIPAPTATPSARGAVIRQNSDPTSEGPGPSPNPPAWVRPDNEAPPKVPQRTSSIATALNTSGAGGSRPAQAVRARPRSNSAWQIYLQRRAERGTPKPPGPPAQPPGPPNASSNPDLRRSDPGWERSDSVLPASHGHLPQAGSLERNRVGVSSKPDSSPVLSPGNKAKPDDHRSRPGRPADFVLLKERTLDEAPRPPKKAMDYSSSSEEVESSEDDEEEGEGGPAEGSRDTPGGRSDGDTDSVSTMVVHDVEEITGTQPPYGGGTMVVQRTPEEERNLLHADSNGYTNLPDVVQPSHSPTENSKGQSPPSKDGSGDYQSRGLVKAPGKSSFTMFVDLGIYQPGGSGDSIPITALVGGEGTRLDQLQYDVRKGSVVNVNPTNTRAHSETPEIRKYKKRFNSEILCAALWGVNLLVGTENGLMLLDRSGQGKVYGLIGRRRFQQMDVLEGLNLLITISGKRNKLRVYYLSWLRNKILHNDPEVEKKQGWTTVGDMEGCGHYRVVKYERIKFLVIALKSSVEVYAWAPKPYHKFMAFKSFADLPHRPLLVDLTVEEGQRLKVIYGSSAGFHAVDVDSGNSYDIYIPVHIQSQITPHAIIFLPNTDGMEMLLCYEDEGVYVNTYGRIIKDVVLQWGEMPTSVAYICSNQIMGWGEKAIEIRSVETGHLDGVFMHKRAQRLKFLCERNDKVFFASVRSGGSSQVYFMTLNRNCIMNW
From the text: as §1

[6] = target: T2, NUAK1 (Homo sapiens, UniProt O60285); test: Kinase selectivity panel, NUAK1; settings: for fold selectivity MAP4K4 over NUAK1: in favour of MAP4K4; for IC50: read-out: pIC50 NUAK1 (converted)
T2 sequence (O60285 1-661): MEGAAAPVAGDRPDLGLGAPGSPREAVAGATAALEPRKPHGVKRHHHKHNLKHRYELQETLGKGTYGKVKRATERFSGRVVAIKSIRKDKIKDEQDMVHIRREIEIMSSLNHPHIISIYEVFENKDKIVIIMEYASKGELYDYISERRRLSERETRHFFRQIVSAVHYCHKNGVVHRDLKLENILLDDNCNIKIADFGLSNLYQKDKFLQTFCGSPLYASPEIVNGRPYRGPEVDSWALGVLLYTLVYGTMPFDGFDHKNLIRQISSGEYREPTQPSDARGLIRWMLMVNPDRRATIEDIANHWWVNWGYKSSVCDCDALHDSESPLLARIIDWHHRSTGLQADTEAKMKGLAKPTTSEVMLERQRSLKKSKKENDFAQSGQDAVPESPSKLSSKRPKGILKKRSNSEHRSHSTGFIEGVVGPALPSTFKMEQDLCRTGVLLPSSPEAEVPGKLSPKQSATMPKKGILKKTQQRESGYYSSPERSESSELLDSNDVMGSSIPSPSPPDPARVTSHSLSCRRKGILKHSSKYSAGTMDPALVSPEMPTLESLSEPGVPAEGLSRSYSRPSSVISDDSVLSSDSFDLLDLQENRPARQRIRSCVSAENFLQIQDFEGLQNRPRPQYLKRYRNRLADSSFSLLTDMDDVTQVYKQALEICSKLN
From the text: as §1

[7] = target: T3, human MAP4K4 kinase domain (Homo sapiens, UniProt O95819); test: MAP4K4 kinase activity, CisBio HTRF Transcreener ADP assay
T3 construct: 0.5 nM human MAP4K4 kinase domain (Invitrogen); purchased Invitrogen
T3 sequence (O95819 25-289 limits assumed): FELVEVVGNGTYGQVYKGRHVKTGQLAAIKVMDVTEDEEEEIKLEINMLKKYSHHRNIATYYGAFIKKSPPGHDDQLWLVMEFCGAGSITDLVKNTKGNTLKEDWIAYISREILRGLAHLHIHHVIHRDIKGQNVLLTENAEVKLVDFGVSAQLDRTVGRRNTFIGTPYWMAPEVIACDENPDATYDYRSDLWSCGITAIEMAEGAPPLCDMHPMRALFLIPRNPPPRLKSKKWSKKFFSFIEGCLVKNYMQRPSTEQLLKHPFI
From the text: Compounds of the present invention were screened for their inhibitory activity against MAP4K4, versus selected off-target hits found with early members of this chemical series. MAP4K4 kinase activity was monitored using the CisBio HTRF Transcreener ADP assay, a competitive immunoassay with a reproducible Z′>0.6. In the detection step, endogenous ADP and d2-labeled ADP compete for binding an anti-ADP monoclonal antibody labelled with Eu^3+ cryptate. A ratiometric fluorescent read-out is used at 665 and 620 nm. Reactions were performed in the presence of 1% DMSO with ATP added at Km (10 μM), 0.5 nM human MAP4K4 kinase domain (Invitrogen), 1 μM biotin-myelin basic protein as substrate (Invitrogen), and extension of reaction time to 2 h. Assays were run in Greiner low volume plates with a final reaction volume of 10 μl. The MAP4K4 inhibition data are provided in Table 41 below for selected compounds of the present invention. The data has been categorised based on the IC50 value of the compound as “A”, “B” or “C”. IC50: A≤100 nM; 100 nM<B≤1 μM; 1 μM<C; nd=not determined.

[8] = target: ABL1 (Homo sapiens, UniProt P00519); test: Kinase selectivity panel, ABL1; settings: for fold selectivity MAP4K4 over ABL1: in favour of MAP4K4; for IC50: read-out: pIC50 ABL1 (converted)
Chain of ABL1 (P00519 whole entry, species assumed): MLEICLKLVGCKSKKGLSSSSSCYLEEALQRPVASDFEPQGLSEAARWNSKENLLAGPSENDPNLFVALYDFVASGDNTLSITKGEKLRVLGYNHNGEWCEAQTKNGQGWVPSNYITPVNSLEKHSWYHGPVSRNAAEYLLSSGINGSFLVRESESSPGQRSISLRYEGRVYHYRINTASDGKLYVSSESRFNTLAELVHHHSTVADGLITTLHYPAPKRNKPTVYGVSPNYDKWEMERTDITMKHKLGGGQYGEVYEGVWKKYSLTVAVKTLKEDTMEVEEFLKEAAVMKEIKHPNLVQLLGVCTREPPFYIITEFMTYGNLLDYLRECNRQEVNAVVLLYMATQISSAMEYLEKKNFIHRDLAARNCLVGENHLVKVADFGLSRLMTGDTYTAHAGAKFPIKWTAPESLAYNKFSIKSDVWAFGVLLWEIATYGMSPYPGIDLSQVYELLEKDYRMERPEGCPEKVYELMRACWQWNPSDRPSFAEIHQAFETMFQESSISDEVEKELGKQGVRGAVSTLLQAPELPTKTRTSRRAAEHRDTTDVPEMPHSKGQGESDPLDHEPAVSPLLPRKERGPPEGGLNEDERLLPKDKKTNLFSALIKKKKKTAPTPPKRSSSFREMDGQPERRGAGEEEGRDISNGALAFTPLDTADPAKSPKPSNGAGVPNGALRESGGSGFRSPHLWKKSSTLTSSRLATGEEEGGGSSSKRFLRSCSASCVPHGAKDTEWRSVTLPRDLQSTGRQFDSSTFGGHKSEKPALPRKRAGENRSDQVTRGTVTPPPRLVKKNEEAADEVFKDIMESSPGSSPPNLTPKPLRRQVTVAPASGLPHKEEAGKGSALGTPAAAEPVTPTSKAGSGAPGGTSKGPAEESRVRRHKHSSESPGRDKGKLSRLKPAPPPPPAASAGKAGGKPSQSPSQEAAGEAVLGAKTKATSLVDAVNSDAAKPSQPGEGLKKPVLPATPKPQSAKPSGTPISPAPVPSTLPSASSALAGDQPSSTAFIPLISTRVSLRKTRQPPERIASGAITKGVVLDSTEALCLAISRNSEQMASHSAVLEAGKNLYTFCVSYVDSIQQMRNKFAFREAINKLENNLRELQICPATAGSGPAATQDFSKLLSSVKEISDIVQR
From the text: as §1

[9] = target: KHS/MAP4K5 (Homo sapiens, UniProt Q9Y4K4); test: Kinase selectivity panel, KHS/MAP4K5; settings: for fold selectivity MAP4K4 over KHS/MAP4K5: in favour of MAP4K4; for IC50: read-out: pIC50 KHS/MAP4K5 (converted)
Chain of KHS/MAP4K5 (Q9Y4K4 whole entry): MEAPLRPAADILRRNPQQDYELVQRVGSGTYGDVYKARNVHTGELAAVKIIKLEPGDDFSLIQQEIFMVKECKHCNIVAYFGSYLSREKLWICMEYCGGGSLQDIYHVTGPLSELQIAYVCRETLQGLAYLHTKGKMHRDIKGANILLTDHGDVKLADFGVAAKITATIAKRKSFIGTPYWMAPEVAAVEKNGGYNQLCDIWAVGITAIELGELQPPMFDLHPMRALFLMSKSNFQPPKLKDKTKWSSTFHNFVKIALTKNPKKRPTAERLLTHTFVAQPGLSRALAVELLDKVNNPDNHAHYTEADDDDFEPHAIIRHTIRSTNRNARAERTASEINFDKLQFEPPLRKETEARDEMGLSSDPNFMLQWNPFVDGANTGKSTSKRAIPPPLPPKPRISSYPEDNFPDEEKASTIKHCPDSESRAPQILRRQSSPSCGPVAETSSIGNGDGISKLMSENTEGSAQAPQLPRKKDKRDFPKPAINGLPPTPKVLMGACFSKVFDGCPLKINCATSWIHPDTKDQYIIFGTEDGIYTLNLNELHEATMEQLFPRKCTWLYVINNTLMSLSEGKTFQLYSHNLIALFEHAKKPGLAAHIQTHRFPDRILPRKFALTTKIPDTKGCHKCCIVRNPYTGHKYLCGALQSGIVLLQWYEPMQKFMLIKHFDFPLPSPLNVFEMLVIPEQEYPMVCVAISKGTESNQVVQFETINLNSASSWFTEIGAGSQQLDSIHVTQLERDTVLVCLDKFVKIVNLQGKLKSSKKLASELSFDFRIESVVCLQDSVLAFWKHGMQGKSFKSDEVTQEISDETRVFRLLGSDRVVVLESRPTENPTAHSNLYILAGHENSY
From the text: as §1

[10] = target: T4, GLK/MAP4K3 (Homo sapiens, UniProt Q8IVH8); test: Kinase selectivity panel, GLK/MAP4K3; settings: for fold selectivity MAP4K4 over GLK/MAP4K3: in favour of MAP4K4; for IC50: read-out: pIC50 GLK/MAP4K3 (converted)
T4 sequence (Q8IVH8 1-894): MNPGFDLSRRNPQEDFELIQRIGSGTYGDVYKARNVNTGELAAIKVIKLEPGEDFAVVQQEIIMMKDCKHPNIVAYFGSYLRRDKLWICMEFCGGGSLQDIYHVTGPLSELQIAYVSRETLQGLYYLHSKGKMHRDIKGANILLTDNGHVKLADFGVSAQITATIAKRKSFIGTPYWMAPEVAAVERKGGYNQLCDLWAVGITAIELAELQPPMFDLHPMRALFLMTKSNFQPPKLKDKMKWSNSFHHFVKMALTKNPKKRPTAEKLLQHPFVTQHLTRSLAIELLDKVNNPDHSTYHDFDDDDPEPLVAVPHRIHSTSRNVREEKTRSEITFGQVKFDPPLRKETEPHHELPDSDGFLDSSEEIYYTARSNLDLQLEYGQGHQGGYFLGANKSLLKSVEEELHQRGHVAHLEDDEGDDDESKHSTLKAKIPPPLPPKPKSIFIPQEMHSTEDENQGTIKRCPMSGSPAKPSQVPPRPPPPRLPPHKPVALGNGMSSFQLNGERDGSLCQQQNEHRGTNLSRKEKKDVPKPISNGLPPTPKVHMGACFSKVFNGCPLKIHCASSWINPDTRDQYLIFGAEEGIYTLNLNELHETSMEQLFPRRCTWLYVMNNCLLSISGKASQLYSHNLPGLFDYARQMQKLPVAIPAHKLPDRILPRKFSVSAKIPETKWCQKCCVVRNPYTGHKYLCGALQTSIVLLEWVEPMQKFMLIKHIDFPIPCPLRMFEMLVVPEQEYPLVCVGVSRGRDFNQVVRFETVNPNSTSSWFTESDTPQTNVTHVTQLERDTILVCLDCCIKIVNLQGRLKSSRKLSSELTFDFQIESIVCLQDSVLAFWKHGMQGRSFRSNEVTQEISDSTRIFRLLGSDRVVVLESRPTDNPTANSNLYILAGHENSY
From the text: as §1

[11] = IC50 category, ATP at Km (10 μM), 0.5 nM kinase domain, 2 h, read-out: MAP4K4
[12] = read-out: pIC50 MAP4K4 (converted)

Chain of MLK3/MAP3K11 (Q16584 whole entry): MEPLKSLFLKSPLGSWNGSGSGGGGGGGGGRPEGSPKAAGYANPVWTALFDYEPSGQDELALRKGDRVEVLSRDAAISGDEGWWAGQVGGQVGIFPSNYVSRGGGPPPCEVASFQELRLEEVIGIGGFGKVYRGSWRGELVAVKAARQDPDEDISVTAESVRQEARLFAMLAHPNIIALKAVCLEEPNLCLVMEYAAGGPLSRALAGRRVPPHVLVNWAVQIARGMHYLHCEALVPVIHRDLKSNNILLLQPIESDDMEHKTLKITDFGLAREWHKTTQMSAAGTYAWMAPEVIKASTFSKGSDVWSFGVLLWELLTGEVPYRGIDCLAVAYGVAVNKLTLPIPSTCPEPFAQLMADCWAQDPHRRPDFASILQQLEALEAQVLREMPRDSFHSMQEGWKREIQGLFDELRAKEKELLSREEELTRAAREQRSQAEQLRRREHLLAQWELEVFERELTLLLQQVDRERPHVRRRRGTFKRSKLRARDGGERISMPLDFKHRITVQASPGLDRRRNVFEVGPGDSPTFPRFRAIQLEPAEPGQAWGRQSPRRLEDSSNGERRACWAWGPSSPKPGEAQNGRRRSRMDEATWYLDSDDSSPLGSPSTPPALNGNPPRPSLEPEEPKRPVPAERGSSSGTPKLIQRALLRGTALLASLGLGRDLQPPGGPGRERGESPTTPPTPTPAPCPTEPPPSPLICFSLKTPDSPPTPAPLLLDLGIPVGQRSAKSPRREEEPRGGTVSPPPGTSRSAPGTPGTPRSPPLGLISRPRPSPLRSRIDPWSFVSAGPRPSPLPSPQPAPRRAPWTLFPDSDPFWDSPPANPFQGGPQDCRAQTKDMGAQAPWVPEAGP

Compound: O=c1[nH]cnc2c(-c3ccc(NC4CC4)nc3)cn(-c3ccccc3)c12 [Ex-135]
IC50 [7, 11]: > 1000 nM

Compound: CC(C)(N)COc1ccc(-c2cn(-c3cccnc3)c3nc[nH]c(=O)c23)cc1 [Ex-110]
IC50 [7, 11]: 100 to 1000 nM

Compound: O=c1[nH]cnc2c1c(-c1ccncc1F)cn2-c1ccccc1 [Ex-61]
IC50 [7, 11]: 100 to 1000 nM

Compound: O=c1[nH]cnc2c(-c3cccnc3)cn(-c3ccccc3)c12 [Ex-124]
IC50 [7, 11]: 100 to 1000 nM

Compound: O=c1[nH]cnc2c1c(-c1cnc(N3CC(O)C3)nc1)cn2-c1ccccc1 [Ex-50]
IC50 [7, 11]: 100 to 1000 nM

Compound: O=c1cc(-c2cn(-c3ccccc3)c3c(=O)[nH]cnc23)cc[nH]1 [Ex-128]
IC50 [7, 11]: 100 to 1000 nM

Compound: O=c1[nH]cnc2c(-c3ccc4cn[nH]c4c3)cn(-c3ccccc3)c12 [Ex-139, 7-(1H-Indazol-6-yl)-5-phenyl-3,5-dihydro-pyrrolo[3,2-d]pyrimidin-4-one]
IC50 [7, 11]: 100 to 1000 nM

Compound: O=c1[nH]cnc2c1c(-c1cnn(CCO)c1)cn2-c1ccc(F)cc1 [Ex-55, 7-(4-fluorophenyl)-5-(1-(2-hydroxyethyl)-1H-pyrazol-4-yl)-3,7-dihydro-4H-pyrrolo[2,3-d]pyrimidin-4-one]
IC50 [7, 11]: 100 to 1000 nM

Continued, values first:

fold selectivity MAP4K4 over MLK3/MAP3K11 [1]: (5) fold
IC50 [1]: 79.4 nM
IC50 [2]: 20 nM
fold selectivity MAP4K4 over MLK1/MAP3K9 [3]: (5) fold
IC50 [3]: 79.4 nM
fold selectivity MAP4K4 over GCK/MAP4K2 [4]: (31) fold
IC50 [4]: 501 nM
IC50 [5]: 10 nM
fold selectivity MAP4K4 over NUAK1 [6]: (13) fold
IC50 [6]: 200 nM
IC50 [7, 11]: ≤ 100 nM
IC50 [7, 12]: 15.8 nM
Compound: O=c1[nH]cnc2c1c(-c1cnn(CCO)c1)cn2-c1ccccc1 [Ex-27]

fold selectivity MAP4K4 over MLK3/MAP3K11 [1]: (13) fold
IC50 [1]: 398 nM
IC50 [2]: 50.1 nM
fold selectivity MAP4K4 over MLK1/MAP3K9 [3]: (100) fold
IC50 [3]: 3160 nM
fold selectivity MAP4K4 over GCK/MAP4K2 [4]: (5) fold
IC50 [4]: 158 nM
fold selectivity MAP4K4 over ABL1 [8]: (126) fold
IC50 [8]: 3980 nM
fold selectivity MAP4K4 over KHS/MAP4K5 [9]: (6) fold
IC50 [9]: 200 nM
fold selectivity MAP4K4 over GLK/MAP4K3 [10]: (50) fold
IC50 [10]: 1580 nM
IC50 [5]: 31.6 nM
fold selectivity MAP4K4 over NUAK1 [6]: (4) fold
IC50 [6]: 126 nM
IC50 [7, 11]: ≤ 100 nM
IC50 [7, 12]: 31.6 nM
Compound: O=c1[nH]cnc2c1c(-c1ccc(OCC(O)CN3CCOCC3)cc1)cn2-c1cccnc1 (stereo not shown) [Ex-54]

fold selectivity MAP4K4 over MLK3/MAP3K11 [1]: (1) fold
IC50 [1]: 31.6 nM
IC50 [2]: 316 nM
fold selectivity MAP4K4 over MLK1/MAP3K9 [3]: (8) fold
IC50 [3]: 126 nM
fold selectivity MAP4K4 over GCK/MAP4K2 [4]: (16) fold
IC50 [4]: 501 nM
IC50 [5]: 63.1 nM
fold selectivity MAP4K4 over NUAK1 [6]: (3) fold
IC50 [6]: 100 nM
IC50 [7, 11]: ≤ 100 nM
IC50 [7, 12]: 31.6 nM
Compound: O=c1[nH]cnc2c1c(-c1cnn(C3COC3)c1)cn2-c1ccccc1 [Ex-26]

fold selectivity MAP4K4 over MLK3/MAP3K11 [1]: (63) fold
IC50 [1]: 1580 nM
IC50 [2]: 200 nM
fold selectivity MAP4K4 over GCK/MAP4K2 [4]: (79) fold
IC50 [4]: 2000 nM
fold selectivity MAP4K4 over ABL1 [8]: (>1000) fold
IC50 [8]: 31600 nM
fold selectivity MAP4K4 over KHS/MAP4K5 [9]: (63) fold
IC50 [9]: 1580 nM
fold selectivity MAP4K4 over GLK/MAP4K3 [10]: (1000) fold
IC50 [10]: 25100 nM
fold selectivity MAP4K4 over NUAK1 [6]: (50) fold
IC50 [6]: 1260 nM
IC50 [7, 11]: ≤ 100 nM
IC50 [7, 12]: 25.1 nM
Compound: COCCOc1ccc(-c2cn(-c3cccnc3)c3nc[nH]c(=O)c23)cc1 [Ex-67]

IC50 [7, 11]: ≤ 100 nM
Compound: CC(C)(O)CCOc1ccc(-c2cn(-c3cccnc3)c3nc[nH]c(=O)c23)cc1F [Ex-73]

IC50 [7, 11]: 100 to 1000 nM
Compound: O=c1[nH]cnc2c1c(-c1ccccc1)cn2-c1ccncc1 [Ex-2]

IC50 [7, 11]: ≤ 100 nM
Compound: CN(C)CCCOc1ccc(-c2cn(-c3cccnc3)c3nc[nH]c(=O)c23)cc1 [Ex-33]

IC50 [7, 11]: ≤ 100 nM
Compound: COCCCn1cc(-c2cn(-c3ccccc3)c3nc[nH]c(=O)c23)cn1 [Ex-64]

IC50 [7, 11]: ≤ 100 nM
Compound: CC(C)(O)C(O)COc1ccc(-c2cn(-c3cccnc3)c3nc[nH]c(=O)c23)cc1 (stereo not shown) [Ex-81]

From patent US12247045B2, “MAP4K4 inhibitors” (Imperial College Innovations Limited, priority 2018, dated 2025)
